The source of these data is patent US20010031751A1, “Pharmaceuticals” (SmithKline Beecham p.l.c., priority 1997, published 2001).

For assay [1], the system named is DMPP-evoked contractions of the guinea-pig colon. The assay can be described thus: Selectivity test: cholinergically-mediated contractions of guinea-pig colon evoked by the nicotinic receptor agonist DMPP. Particulars: selectivity of action. How it is done: To test for selectivity of action, compounds are tested for their ability to antagonise cholinergically-mediated contractions of the guinea-pig colon, evoked by the nicotinic receptor agonist. DMPP (1,1-dimethyl-4-phenyl-piperazinium iodide). For these experiments, tissues and equipment are set up as for the above, 5HT4 receptor experiments. After sensitization, non-cumulative dose response curves are constructed to DMPP. Test compounds are incubated with the tissues as above, and a second dose response curve to DMPP created. Results are given as mean pKB± SEM values for each antagonists.

A further assay deals with T1, 5-HT4 receptor (Cavia porcellus, UniProt O70528).
T1 construct: Longitudinal muscle-myenteric plexus (LMMP) preparations, 2-3cm long, are obtained from the distal colon region; from tissue; host or cells: guinea-pig distal colon longitudinal muscle-myenteric plexus
T1 sequence (O70528 whole entry): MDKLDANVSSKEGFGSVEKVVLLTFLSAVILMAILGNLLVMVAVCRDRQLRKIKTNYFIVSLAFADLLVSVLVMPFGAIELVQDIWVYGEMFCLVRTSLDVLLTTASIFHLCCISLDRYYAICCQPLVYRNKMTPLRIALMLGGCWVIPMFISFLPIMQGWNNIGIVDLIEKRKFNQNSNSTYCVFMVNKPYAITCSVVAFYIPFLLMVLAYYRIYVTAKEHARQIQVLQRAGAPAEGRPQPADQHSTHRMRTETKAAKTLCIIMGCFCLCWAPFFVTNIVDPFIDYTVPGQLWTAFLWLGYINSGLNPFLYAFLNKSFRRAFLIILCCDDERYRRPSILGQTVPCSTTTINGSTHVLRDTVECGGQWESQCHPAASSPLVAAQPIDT
The assay is described as follows: 5-HT4 receptor antagonist activity: 5-HT-evoked contractions of guinea-pig distal colon longitudinal muscle-myenteric plexus (LMMP) preparations. As to conditions: mean ± SEM, n=7, antagonism of 5-HT dose response curve, 45 minutes incubation. How it is done:
5-HT4 RECEPTOR ANTAGONIST ACTIVITY
Male Dunkin Hartley guinea-pigs, weighing 200-300 g are used. Longitudinal muscle-myenteric plexus (LMMP) preparations, 2-3cm long, are obtained from the distal colon region. These are suspended under a 0.5 g load in isolated tissue baths containing Krebs Henseleit solution (NaCl 118 mM, KCl 4.7mM KH2PO4 1.2mM MgSO4 7H2O 1.2mM, Glucose 11.1mM, NaHCO3 25mM, CaCl2 6H2O 2.5mM) bubbled with 5% CO2 in O2, maintained at 37° C. and containing 1uM Granisetron and 0.1uM Methiothepin to block 5HT3 and 5HT1-like receptors respectively. 100uM Pargyline is also added to the tissues at the start of the experiment. Tissues are left for 15 minutes to equilibrate and then exposed to 5-HT at 0.1uM every 15 minutes until a uniform response is achieved. Following a half hour period for tissues to stabilise, non-cumulative dose response curves to 5-HT are constructed in all tissues. When base-lines have returned to normal, test compounds are added in the reservoirs of the tissue set-ups and washed in to the tissues. Tissues are incubated with the antagonists for 45 minutes after which a second non-cumulative dose response curve to 5-HT is constructed.
To test for selectivity of action, compounds are tested for their ability to antagonise cholinergically-mediated contractions of the guinea-pig colon, evoked by the nicotinic receptor agonist. […]

A word on the Kb: it is the equilibrium dissociation constant of an antagonist, usually derived from a functional assay. High values mean a less potent antagonist, low ones a more potent antagonist. In the case of `CCCCN1CCC(CNC(=O)c2c3n(c4ccccc24)C(O)CCO3)CC1` (racemic) [compound of formula (I), (±)-N-[(1-butyl-4-piperidinyl)methyl]-3,4-dihydro-4-hydroxy-2H-[1,3]oxazino[3,2-a]indole-10-carboxamide], the “effect on DMPP-evoked contractions” value in assay [1] is reported as “did not significantly affect DMPP-evoked contractions”. At 5-HT4 receptor, this compound had an antagonist equilibrium constant (Kb) of 3.39 nM.
